Experimental data: patent US11707070B2, “Inhibition of fungal growth by manganese depletion” (Chr. Hansen A/S, priority 2018, dated 2023)
Like-named read-outs stand apart in the source and are kept apart here.

Legend:
Cryptococcus fragicola = experiment: Yeast agar-assay on fermented milk plates (Example 6); type: cell-based; details: added manganese on fermented milk agar plates
Procedure: Influence of manganese on the inhibitory effect against different molds were evaluated. An agar-assay resembling the manufacturing process and production of fermented milk products was used. L. rhamnosus and L. paracasei were used together as manganese scavenging agents. Reduced-fat (1.5% w/v) homogenized milk was heat-treated at 90±1° C. for 20 min and cooled immediately. A commercial starter culture (Streptococcus thermophilus and Lactobacillus delbrueckii subsp. bulgaricus) was inoculated at 0.02% (v/w) in 3 L buckets. […] The fermented milk products were divided into 200 mL bottles and cooled down. […] All the fermented milk samples were warmed to a temperature of 40° C. and added 40 ml of a 5% sterile agar solution that had been melted and cooled down to 60° C. This solution of fermented milk and agar was then poured into sterile Petri dishes and the plates were dried in a LAF bench for 30 min. Three target contaminants, including two Debaryomyces hansenii (strain 1 and strain 2) and one Cryptococcus fragicola were spotted in concentrations of 10^3, 10^2 and 10^1 CFU/spot. Plates were incubated at 7±1° C. and regularly examined for the growth of yeast.

Debaromyces hansenii = test system: Debaromyces hansenii
Procedure: Absorbance at 600 nm was measured after 7 days of incubation at 17° C., compared to reference. Samples made in triplicate.
Two concentrations of manganese were used, 6 ppm and 0.6 ppm, in example 8.

Debaryomyces hansenii [1] = details: chemically defined medium, pH 6.5 or 4.5; 6 days at 17° C.; FIGS. 1 and 2
Procedure: Two D. hansenii isolated from spoiled yogurt (strain 1) and quark (strain 2), respectively, were used.
The minimal medium contains biotin 2 μg/L, calcium pantothenate 400 μg/L, folic acid 2 μg/L, inositol 2 mg/L, nicotinic acid 400 μg/L, p-amino benzoic acid 200 μg/L, pyridoxine 400 μg/L, riboflavin 200 μg/L, thiamine 400 μg/L, Boric acid 500 μg/L, copper sulfate 40 μg/L, potassium iodide 100 μg/L, ferric chloride 200 μg/L, sodium molybdate 200 μg/L, zinc sulfate 400 μg/L, potassium phosphate monobasic 0.5 g/L, potassium phosphate dibasic 0.5 g/L, magnesium sulfate 0.5 g/L, sodium chloride 0.1 g/L, calcium chloride 0.2 g/L, glucose 20 g/L, ammonium sulfate 5 g/L.
Two different pH were tested: pH 6.5 and 4.5.
The strains were inoculated to 150 μl of the different medium in a 96 well plate. The plates were incubated at 17° C. for several days and the growth of the yeast strains was followed by measuring absorbance at 600 nm in a plate reader.

Debaryomyces hansenii [2] = experiment: Yeast growth in yogurt with EDTA or scavenger (Example 9); type: cell-based; details: added to reference yogurt; FIG. 14
Procedure: The concentration of EDTA ranges from 14 mg/ml (top row), 7.10 mg/ml, 3.55 mg/ml, 1.78 mg/ml, 0.89 mg/ml, 0.44 mg/ml, 0.22 mg/ml to 0 mg/ml (bottom row).

SMILES	Manganese concentration that seemed to inhibit the growth (Cryptococcus fragicola) [ppm]	manganese concentration with inhibitory/toxic effect on yeast growth (Debaromyces hansenii; Example 8) [ppm]	manganese concentration below which growth is inhibited (Debaryomyces hansenii [1]) [ppm]	concentration reproducing the inhibition of manganese scavenging agent 1 (Debaryomyces hansenii [2])	concentration at which cells stop growing (inhibitory effect) (Debaromyces hansenii; FIG. 12, aqueous phase filtered with 1.2 μm filter, 7 days at 17° C.) [mg/mL]	effect on growth of adding 0.6 ppm of manganese together with 0.05 mg/ml EDTA (Debaromyces hansenii; FIG. 13, 0.05 mg/ml EDTA + 0.6 ppm manganese)	concentration at which cells stop growing (inhibitory effect) (Debaromyces hansenii; FIG. 13, aqueous phase filtered with 0.2 μm filter, absence of manganese (0.6 ppm)) [mg/mL]
[Mn+2] [manganese]	6	6	< 0.01				
O=C(O)CN(CCN(CC(=O)O)CC(=O)O)CC(=O)O [EDTA, ethylenediaminetetraacetic acid]				up to 0.89 mg/ml	0.05	restores the growth	0.05
